Results reported in patent US20100298141A1, “SUBSTITUTED PYRIDINE N-OXIDE HERBICIDES” (E. I. DU PONT DE NEMOURS AND COMPANY, priority 2007, published 2010).

Tests used:
[1] = system: barnyardgrass; test: Test A pre-/postemergence greenhouse test; type: in vivo, Echinochloa crus-galli; conditions: for Barnyardgrass plant response rating: 0 to 100 scale
Outline: (§1)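 Planting was into mixed loam soil and sand; preemergence treatment followed as a directed soil spray. Concurrently, emerged plants (one- to two-leaf, 2–10 cm) received postemergence applications of identically formulated compound (non-phytotoxic solvent, surfactant). After approximately ten days under greenhouse conditions, injury was judged by eye against untreated plants.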

[2] = system: giant foxtail; test: Test A pre-/postemergence greenhouse test; type: in vivo, Setaria faberi; conditions: for Foxtail, Giant plant response rating: 0 to 100 scale
Outline: as §1

[3] = system: morningglory; test: Test A pre-/postemergence greenhouse test; type: in vivo, Ipomoea spp.; conditions: for Morningglory plant response rating: 0 to 100 scale
Outline: as §1

[4] = system: redroot pigweed; test: Test A pre-/postemergence greenhouse test; type: in vivo, Amaranthus retroflexus; conditions: for Pigweed plant response rating: 0 to 100 scale
Outline: as §1

[5] = system: wheat; test: Test A pre-/postemergence greenhouse test; type: in vivo, Triticum aestivum; conditions: for Wheat plant response rating: 0 to 100 scale
Outline: as §1

[6] = system: corn; test: Test A pre-/postemergence greenhouse test; type: in vivo, Zea mays; conditions: for Corn plant response rating: 0 to 100 scale
Outline: as §1

[7] = system: wheat; test: Test C pre-/postemergence test; type: in vivo, Triticum aestivum; conditions: for Wheat plant response rating: preemergence, scale 0 (no effect) to 100 (complete control); for Plant response rating, Wheat: scale 0 to 100, 0 no effect, 100 complete control
Outline: (§2)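 Seeds were planted and treated preemergence with test chemical in a non-phytotoxic solvent mixture containing surfactant. Postemergence applications of the same formulation went onto plants 2 to 18 cm tall (1- to 4-leaf stage). A dash marks no test result.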

[8] = system: bermudagrass; test: Test C pre-/postemergence test; type: in vivo, Cynodon dactylon; conditions: for Plant response rating, Bermudagrass: Postemergence, scale 0 to 100, 0 no effect, 100 complete control
Outline: as §2

[9] = system: Surinam grass; test: Test C pre-/postemergence test; type: in vivo, Brachiaria decumbens; conditions: for Surinam Grass plant response rating: preemergence, scale 0 (no effect) to 100 (complete control); for Plant response rating, Surinam Grass: scale 0 to 100, 0 no effect, 100 complete control
Outline: as §2

[10] = system: crabgrass; test: Test C pre-/postemergence test; type: in vivo, Digitaria sanguinalis; conditions: for Plant response rating, Crabgrass, Large: scale 0 to 100, 0 no effect, 100 complete control
Outline: as §2

[11] = system: Goosegrass; test: Test C pre-/postemergence test; type: in vivo, Eleusin indica; conditions: for Plant response rating, Goosegrass: scale 0 to 100, 0 no effect, 100 complete control
Outline: as §2

[12] = system: lambsquarters; test: Test C pre-/postemergence test; type: in vivo, Chenopodium album; conditions: for Plant response rating, Lambsquarters: scale 0 to 100, 0 no effect, 100 complete control
Outline: as §2

[13] = system: eastern black nightshade; test: Test C pre-/postemergence test; type: in vivo, Solanum ptycanthum
Source text: Seeds of plant species selected from blackgrass (Alopecurus myosuroides), downy brome (Bromus tectorum), green foxtail (Setaria viridis), Italian ryegrass (Lolium multiflorum), wheat (Triticum aestivum), wild oat (Avena fatua), catchweed bedstraw (Galium aparine), Russian thistle (Salsola kali), […] (Cynodon dactylon), Surinam grass (Brachiaria decumbens), cocklebur (Xanthium strumarium), corn (Zea mays), crabgrass (Digitaria sanguinalis), woolly cupgrass (Eriochloa villosa), giant foxtail (Setaria faberii), Goosegrass (Eleusin indica), johnsongrass (Sorghum halepense), kochia (Kochia scoparia), lambsquarters (Chenopodium album), morningglory (Ipomoea coccinea), eastern black nightshade (Solanum ptycanthum), yellow nutsedge (Cyperus esculentus), pigweed (Amaranthus retroflexus), common ragweed (Ambrosia elation), soybean (Glycine max), common (oilseed) sunflower (Helianthus annuus), and velvetleaf (Abutilon theophrasti) were planted and treated preemergence with test chemicals formulated in a non-phytotoxic solvent mixture which included a surfactant. At the same time, plants selected from these crop and weed species and also winter barley (Hordeum vulgare), canarygrass (Phalaris minor), and chickweed (Stellaria media) were treated with postemergence applications of some of the test chemicals formulated in the same manner. Plants ranged in height from 2 to 18 cm (1- to 4-leaf stage) for postemergence treatments. […] At time of treatment, test pots were flooded to 3 cm above the soil surface, treated by application of test compounds directly to the paddy water, and then maintained at that water depth for the duration of the test. […] A dash (-) response means no test result.

[14] = system: pigweed; test: Test C pre-/postemergence test; type: in vivo, Amaranthus retroflexus; conditions: for Plant response rating, Pigweed: scale 0 to 100, 0 no effect, 100 complete control
Outline: as §2

[15] = system: common (oilseed) sunflower; test: Test C pre-/postemergence test; type: in vivo, Helianthus annuus; conditions: for Sunflower plant response rating: preemergence, scale 0 (no effect) to 100 (complete control)
Outline: as §2

[16] = system: rice; test: Test C flooded paddy test; type: in vivo, Oryza sativa; conditions: Flood
Outline: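 Visual injury ratings against untreated controls, taken 13 to 15 days after compound was added to paddy water standing 3 cm above the soil.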

[17] = Postemergence, 125 g ai/ha, 0 is no effect, 100 is complete control
[18] = Postemergence, 500 g ai/ha, 0 is no effect, 100 is complete control
[19] = Preemergence, 125 g ai/ha, 0 no effect, 100 complete control
[20] = Preemergence, 500 g ai/ha, 0 to 100 scale where 0 is no effect and 100 is complete control
[21] = 31 g ai/ha, Preemergence, scale 0 to 100
[22] = 62 g ai/ha, preemergence, scale 0 (no effect) to 100 (complete control)
[23] = preemergence, 125 g ai/ha, scale 0 (no effect) to 100 (complete control)

## Cc1cc[n+]([O-])c([S+]([O-])Cc2c(C(F)(F)F)nn(C)c2OC(F)F)c1 (stereo not drawn) [Compound 1]
[1]; [17]
  Barnyardgrass plant response rating: 80
[1]; [18]
  Barnyardgrass plant response rating: 80
[1]; [19]
  Barnyardgrass plant response rating: 90
[1]; [20]
  Plant response rating, Barnyardgrass: 100
[2]; [17]
  Foxtail, Giant plant response rating: 80
[2]; [18]
  Foxtail, Giant plant response rating: 90
[2]; [19]
  Foxtail, Giant plant response rating: 100
[2]; [20]
  Plant response rating, Foxtail, Giant: 100
[3]; [17]
  Morningglory plant response rating: 70
[3]; [18]
  Morningglory plant response rating: 90
[3]; [19]
  Morningglory plant response rating: 70
[3]; [20]
  Plant response rating, Morningglory: 80
[4]; [17]
  Pigweed plant response rating: 100
[4]; [18]
  Pigweed plant response rating: 100
[4]; [19]
  Pigweed plant response rating: 100
[4]; [20]
  Plant response rating, Pigweed: 100
[5]; [17]
  Wheat plant response rating: 70
[5]; [18]
  Wheat plant response rating: 70
[5]; [19]
  Wheat plant response rating: 60
[5]; [20]
  Plant response rating, Wheat: 90
[6]; [17]
  Corn plant response rating: 50
[6]; [18]
  Corn plant response rating: 80
[6]; [19]
  Corn plant response rating: 0
[6]; [20]
  Plant response rating, Corn: 70
[7]; 62 g ai/ha
  Wheat plant response rating: 30
[7]; Postemergence, 31 g ai/ha
  Plant response rating (0 to 100), Wheat: 0
[7]; Postemergence, 62 g ai/ha
  Plant response rating (0 to 100), Wheat: 0
[7]; Postemergence, 125 g ai/ha
  Plant response rating, Wheat: 0
[7]; Postemergence, 250 g ai/ha
  Plant response rating, Wheat: 0
[7]; Preemergence, 250 g ai/ha
  Plant response rating (0 to 100), Wheat: 95
[7]; 125 g ai/ha
  Wheat plant response rating: 60
[8]; [21]
  Bermudagrass plant response rating: 85
[8]; [22]
  Bermudagrass plant response rating: 90
[8]; 125 g ai/ha
  Plant response rating, Bermudagrass: 70
[8]; 250 g ai/ha
  Plant response rating, Bermudagrass: 80
[8]; Preemergence, 250 g ai/ha
  Plant response rating (0 to 100), Bermudagrass: 100
[8]; [23]
  Bermudagrass plant response rating: 100
[9]; 62 g ai/ha
  Surinam Grass plant response rating: 100
[9]; Postemergence, 31 g ai/ha
  Plant response rating (0 to 100), Surinam Grass: 0
[9]; Postemergence, 62 g ai/ha
  Plant response rating (0 to 100), Surinam Grass: 0
[9]; Postemergence, 125 g ai/ha
  Plant response rating, Surinam Grass: 30
[9]; Postemergence, 250 g ai/ha
  Plant response rating, Surinam Grass: 60
[9]; Preemergence, 250 g ai/ha
  Plant response rating (0 to 100), Surinam Grass: 100
[9]; 125 g ai/ha
  Surinam Grass plant response rating: 100
[10]; [21]
  Crabgrass, Large plant response rating: 0
[10]; [22]
  Crabgrass, Large plant response rating: 80
[10]; Postemergence, 31 g ai/ha
  Plant response rating (0 to 100), Crabgrass, Large: 10
[10]; Postemergence, 62 g ai/ha
  Plant response rating, Crabgrass, Large: 30
[10]; Postemergence, 125 g ai/ha
  Plant response rating, Crabgrass, Large: 50
[10]; Postemergence, 250 g ai/ha
  Plant response rating, Crabgrass, Large: 70
[10]; Preemergence, 250 g ai/ha
  Plant response rating (0 to 100), Crabgrass, Large: 100
[10]; [23]
  Crabgrass, Large plant response rating: 100
[11]; [21]
  Goosegrass plant response rating: 70
[11]; [22]
  Goosegrass plant response rating: 100
[11]; Postemergence, 31 g ai/ha
  Plant response rating (0 to 100), Goosegrass: 0
[11]; Postemergence, 62 g ai/ha
  Plant response rating, Goosegrass: 0
[11]; Postemergence, 125 g ai/ha
  Plant response rating, Goosegrass: 30
[11]; Postemergence, 250 g ai/ha
  Plant response rating, Goosegrass: 80
[11]; Preemergence, 250 g ai/ha
  Plant response rating (0 to 100), Goosegrass: 100
[11]; [23]
  Goosegrass plant response rating: 100
[12]; [21]
  Lambsquarters plant response rating: 100
[12]; [22]
  Lambsquarters plant response rating: 100
[12]; Postemergence, 31 g ai/ha
  Plant response rating (0 to 100), Lambsquarters: 0
[12]; Postemergence, 62 g ai/ha
  Plant response rating, Lambsquarters: 40
[12]; Postemergence, 125 g ai/ha
  Plant response rating, Lambsquarters: 40
[12]; Postemergence, 250 g ai/ha
  Plant response rating, Lambsquarters: 70
[12]; Preemergence, 250 g ai/ha
  Plant response rating (0 to 100), Lambsquarters: 100
[12]; [23]
  Lambsquarters plant response rating: 100
[13]; [21]
  Nightshade plant response rating: 70
[13]; [22]
  Nightshade plant response rating: 100
[13]; Preemergence, 250 g ai/ha
  Plant response rating (0 to 100), Nightshade: 100
[13]; [23]
  Nightshade plant response rating: 100
[14]; [21]
  Pigweed plant response rating: 80
[14]; [22]
  Pigweed plant response rating: 100
[14]; Postemergence, 31 g ai/ha
  Plant response rating (0 to 100), Pigweed: 0
[14]; Postemergence, 62 g ai/ha
  Plant response rating (0 to 100), Pigweed: 0
[14]; Postemergence, 125 g ai/ha
  Plant response rating, Pigweed: 0
[14]; Postemergence, 250 g ai/ha
  Plant response rating, Pigweed: 10
[14]; Preemergence, 250 g ai/ha
  Plant response rating (0 to 100), Pigweed: 100
[14]; [23]
  Pigweed plant response rating: 100
[15]; 62 g ai/ha
  Sunflower plant response rating: 5
[15]; Preemergence, 250 g ai/ha
  Plant response rating (0 to 100), Sunflower: 75
[15]; 125 g ai/ha
  Sunflower plant response rating: 25
[16]; 31 g ai/ha, scale 0 to 100 (0 no effect, 100 complete control)
  Plant response rating, Rice: 0
[16]; 62 g ai/ha, scale 0 to 100, 0 no effect, 100 complete control, 13 to 15 days
  Plant response rating, Rice: 0
[16]; 125 g ai/ha, scale 0 to 100, 0 no effect, 100 complete control, 13 to 15 days
  Plant response rating, Rice: 80
[16]; 250 g ai/ha, scale 0 to 100 (0 no effect, 100 complete control)
  Plant response rating, Rice: 80
